{"source": "paper PMC9067978", "about": "“Design, synthesis, and molecular docking studies of novel pomalidomide-based PROTACs as potential anti-cancer agents targeting EGFR^WT and EGFR^T790M” (Journal of Enzyme Inhibition and Medicinal Chemistry, 2022)", "key": {"EGFR^WT": {"target": "T1, EGFR^WT (Homo sapiens, UniProt P00533)", "T1 construct": "purchased Sigma", "T1 sequence (P00533 25-1210)": "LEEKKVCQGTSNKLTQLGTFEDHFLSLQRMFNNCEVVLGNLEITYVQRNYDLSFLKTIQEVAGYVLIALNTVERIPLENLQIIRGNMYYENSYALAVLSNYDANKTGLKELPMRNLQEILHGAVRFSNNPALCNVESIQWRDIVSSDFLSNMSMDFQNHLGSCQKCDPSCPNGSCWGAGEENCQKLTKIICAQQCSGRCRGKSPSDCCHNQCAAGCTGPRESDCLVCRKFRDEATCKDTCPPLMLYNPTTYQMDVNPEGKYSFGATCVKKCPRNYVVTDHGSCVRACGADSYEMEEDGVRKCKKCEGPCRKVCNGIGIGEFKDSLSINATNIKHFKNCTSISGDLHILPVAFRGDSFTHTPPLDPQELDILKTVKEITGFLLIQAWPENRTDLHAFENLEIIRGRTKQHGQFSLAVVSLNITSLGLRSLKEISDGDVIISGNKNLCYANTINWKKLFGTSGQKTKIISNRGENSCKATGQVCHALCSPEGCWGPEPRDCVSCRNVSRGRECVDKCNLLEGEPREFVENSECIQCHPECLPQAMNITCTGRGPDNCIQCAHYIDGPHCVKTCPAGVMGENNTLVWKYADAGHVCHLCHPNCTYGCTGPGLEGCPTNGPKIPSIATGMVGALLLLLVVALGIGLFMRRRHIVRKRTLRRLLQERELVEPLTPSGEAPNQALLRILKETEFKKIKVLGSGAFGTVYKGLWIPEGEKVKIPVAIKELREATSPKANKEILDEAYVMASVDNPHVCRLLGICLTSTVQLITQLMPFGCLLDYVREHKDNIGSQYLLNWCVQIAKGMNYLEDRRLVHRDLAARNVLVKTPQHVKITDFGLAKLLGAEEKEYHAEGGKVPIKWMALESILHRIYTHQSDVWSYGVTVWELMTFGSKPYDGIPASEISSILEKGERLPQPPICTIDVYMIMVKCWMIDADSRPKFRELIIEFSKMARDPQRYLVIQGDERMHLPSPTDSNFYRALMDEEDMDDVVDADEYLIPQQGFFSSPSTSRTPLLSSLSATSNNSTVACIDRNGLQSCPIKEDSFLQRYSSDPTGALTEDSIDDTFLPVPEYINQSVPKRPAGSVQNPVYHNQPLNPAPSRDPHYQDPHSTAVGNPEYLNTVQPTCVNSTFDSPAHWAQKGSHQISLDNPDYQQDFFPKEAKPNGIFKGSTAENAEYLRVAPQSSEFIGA", "test": "EGFR^WT kinase inhibitory assay (HTRF)", "assay_type": "biochemical", "conditions": "ATP 1.65 µM, mean ± S.D of three experiments", "protocol": "This test used HTRF[44] assay with EGFR^WT and EGFR^T790M (Sigma). For the first 5 minutes, the evaluated compounds were incubated with EGFR^WT and/or EGFR^T790M and their substrates in the enzymatic buffer. […] The assay was performed at 37 °C for 30 minutes. The addition of EDTA-containing detection reagents halted the process. After one hour detection period, GraphPad Prism 5.0 was used to calculate the IC50 values. For each concentration, three separate trials were carried out."}, "EGFR": {"target": "T2, EGFR (Homo sapiens, UniProt P00533)", "T2 construct": "EGFR degradation activities of compounds in A549 cells; endogenous in cells; host or cells: A549", "T2 sequence (P00533 25-1210)": "as above", "test": "Western blotting, EGFR degradation in A549 cells", "assay_type": "cell-based", "protocol": "Following this, the target compounds 15–21 tethering various E3 ligases ligand were chosen as representative PROTACs for further degradation study based on temporal data.\nFigure 4. (A) EGFR degradation activities of compounds in A549 cells. Cells were treated for 48 h with concentration of 0.1 and 1 µM. (B) Effects of concentration-dependent EGFR degradation by compounds 15–21 in A549 cell lines. Cells were treated for 48 h with a concentration from 1 nM to 10 µM. EGFR protein was examined by Western blotting analysis and EGFR degradation rate was quantified by densitometry and normalised to the corresponding density of β-actin protein (n ¼ 3). TEXT PRINTED IN THE PICTURE: (B) Comp 15: DC50 = 43.4 nm | (B) Comp 16: DC50= 32.9 nm DOUBTS OF THE COPYIST ABOUT THIS PICTURE: Comp 15, DC50: 43.4 is small blurred print; the 3 could be 8 and the digits are not certain / Comp 16, DC50: 32.9 is small blurred print; the 3 could be 8 and the 9 could be 8 or 0\nWe set nine concentration gradients ranging from […] to 10 µM to determine the degradation activity of all tested compounds and calculated the DC50 (concentration that caused deletion of 50% of EGFR) values.\n(§1) At a concentration of 100 nM, the time-dependent degradation activities of compounds 15–21 were also examined (Figure 5(A)).\nFigure 5. (A) EGFR time-dependent degradation by compound 16 in A549 cell lines. Cells were treated with100 nM of 15–21 for indicated time points. Western blotting was used to evaluate EGFR protein, and densitometry was used to measure EGFR degradation, which was adjusted to the density of β-actin protein (n ¼2). (B) Compounds 15 and 16 have EGFR degradation and phosphorylation inhibitory action in A549 cells. The cells were exposed to concentrations of 0.1, 0.3, and 1 µM. Erlotinib were utilised for comparison. TEXT PRINTED IN THE PICTURE: (A) Comp 15: Dmax = 85 % @ 96 h; Degradation: 9 (4 h; 100 nM); Degradation: 22 (8 h; 100 nM); Degradation: 42 (12 h; 100 nM); Degradation: 83 (24 h; 100 nM); Degradation: 84 (36 h; 100 nM); Degradation: 82 (48 h; 100 nM); Degradation: 82 (72 h; 100 nM); Degradation: 85 (96 h; 100 nM) | (A) Comp 16: Dmax = 96 % @72 h; Degradation: 32 (4 h; 100 nM); Degradation: 43 (8 h; 100 nM); Degradation: 67 (12 h; 100 nM); Degradation: 69 (24 h; 100 nM); Degradation: 78 (36 h; 100 nM); Degradation: 85 (48 h; 100 nM); Degradation: 96 (72 h; 100 nM); Degradation: 94 (96 h; 100 nM) DOUBTS OF THE COPYIST ABOUT THIS PICTURE: Comp 15, Dmax: print is blurred, 85 % @ 96 h is the best reading (85 or 86) / Comp 16, Dmax: print is small and blurred, 96 % @72 h is the best reading (96 or 95; the % sign is unclear) / Comp 15, Degradation row: print is blurred, 83/84/82/82/85 are best readings (3, 5, 8 are hard to tell apart) / Comp 16, Degradation row: print is blurred, 67/69/78/85/96/94 are best readings (5, 6, 8, 9 are hard to tell apart) / The Degradation rows are printed under the blot lanes with no unit. The value 0 under the 0.1 % DMSO control lane was not assigned to any compound.\nCells were seeded in 6-well plates at 1 × 10^6 per well, incubated at 37 °C with 5% CO2 for 24 h before drug exposure. Cells were treated with different concentrations of synthesised compounds for […], then collected and suspended in lysis buffer (Beyotime) and centrifuged for 20 min at 12000 rpm, later removed the insoluble material. […] The results were detected by an enhanced chemiluminescence system (Mill-pore). […]"}, "Akt phosphorylation": {"tested_on": "Akt phosphorylation", "test": "Western blotting, Akt phosphorylation in A549 cells", "assay_type": "cell-based, human", "conditions": "A549 cells, 0.1, 0.3 and 1 µM, erlotinib for comparison", "protocol": "as §1\nFigure 5. (A) EGFR time-dependent degradation by compound 16 in A549 cell lines. Cells were treated with100 nM of 15–21 for indicated time points. Western blotting was used to evaluate EGFR protein, and densitometry was used to measure EGFR degradation, which was adjusted to the density of β-actin protein (n ¼2). (B) Compounds 15 and 16 have EGFR degradation and phosphorylation inhibitory action in A549 cells. The cells were exposed to concentrations of 0.1, 0.3, and 1 µM. Erlotinib were utilised for comparison. […]\nCells were seeded in 6-well plates at 1 × 10^6 per well, incubated at 37 °C with 5% CO2 for 24 h before drug exposure. […] The results were detected by an enhanced chemiluminescence system (Mill-pore). […]"}, "HCT-116": {"tested_on": "HCT-116", "test": "DNA-flow cytometric cell cycle analysis, HCT-116", "assay_type": "cell-based, human", "conditions": "3.32 µM, 24 hours", "protocol": "Then, the influence of compound 16 on the cell cycle profile was then investigated.\nThe cells that had been tested were then trypsinized and washed in sterilised phosphate buffer saline (PBS). The collected cells were fixed with cold ethanol (100%, 1.5 ml). According to the manufacturer’s instructions, a Cycle TESTTM PLUS DNA Reagent Kit was used to dye the cells (BD Biosciences, San Jose, CA). A flow cytometer was used to assess cell-cycle distribution.[52]"}}, "note": "Entries after “also recorded” stand apart in the source; their conditions may differ."}
{"smiles": "Cn1c(=O)c(C(=O)NNCCOCCOCC(=O)Nc2cccc3c2C(=O)N(C2CCC(=O)NC2=O)C3=O)nc2ccccc21", "note": "(stereo not shown) [Compound 16, N-(2-(2,6-dioxopiperidin-3-yl)-1,3-dioxoisoindolin-4-yl)-2-(2-(2-(2-(4-methyl-3-oxo-3,4-dihydroquinoxaline-2-carbonyl) hydrazinyl)ethoxy)ethoxy) acetamide]", "values": [{"measurement": "IC50", "setting": "EGFR^WT", "result": "100 ± 30", "unit": "nM"}, {"measurement": "Dmax at 0.1 µM", "setting": "EGFR; A549, A549 cells, 100 nM, time course, reached at 96 h (15) and 72 h (16), read-out: Dmax, maximum EGFR degradation rate", "result": 96, "unit": "%"}, {"measurement": "DC50", "setting": "EGFR; A549 cells, 48 h, Western blotting densitometry, read-out: DC50 (concentration that caused deletion of 50% of EGFR)", "result": 32.9, "unit": "nM"}, {"measurement": "concentration-dependent EGFR degradation, in words", "setting": "EGFR; A549 cells, 48 h, concentration series up to 10 µM", "result": "hook effect"}, {"measurement": "inhibition of Akt phosphorylation, in words", "setting": "Akt phosphorylation", "result": "effectively displayed inhibitory activity; also recorded: comparable to erlotinib"}, {"measurement": "fold increase of cells in G2-M phase vs control, HCT-116", "setting": "HCT-116", "result": 1.49, "unit": "fold"}, {"measurement": "fold increase of cells in pre-G1 phase vs control, HCT-116", "setting": "HCT-116", "result": 5.37, "unit": "fold"}]}
